Measurements reported in patent US10132810B2, “Method for assessing and predicting efficacy of breast cancer treatment with a long-acting topoisomerase I inhibitor” (priority 2012, dated 2018).
Where two headings read alike, the source gives them in different places.

Experiments:
serum CA27.29 = system: serum CA27.29
Description: Medical history was taken at screening and on day 1 of each cycle. Physical exam was performed and serum CA27.29, complete blood count with differential, and serum chemistry were analyzed at screening, on day 1 of each cycle, and at end of treatment. Coagulation parameters were analyzed at screening and on day 1 of each cycle. […] Patients were contacted approximately every 3 months after the end-of-treatment visit to assess progression (in the absence of progression on study), survival, receipt of subsequent anti-cancer therapy, and resolution of toxicity.
Secondary endpoints were PFS, overall survival (OS), 6-month and 1-year survival, and safety. Exploratory endpoints included change from baseline in CA27.29, UGT1A1 and ABCC2 polymorphism for correlation with select toxicities.
The analysis dataset utilized consisted of 45 patients having at least two CA27.29 measurements (pre- and post-first dose).
Levels of CA27.29 were also evaluated for correlation with tumor size over the course of treatment.

[1] = system: patients with previously treated metastatic breast cancer; test: Efficacy of two dosing schedules in patients with previously treated metastatic breast cancer (RECIST response, PFS, OS); format: in vivo, human
Description: Seventy patients were enrolled in the trial (n=35 per arm). […] Patients received treatment until disease progression or unacceptable toxicity. The drug dosage was dose-reduced by 25 mg/m^2 for grade 3-4 hematologic toxicity, grade 3-4 diarrhea, and other grade 2-4 non-hematologic toxicities (other than alopecia, anorexia, asthenia, and untreated nausea/vomiting). […] Medical history was taken at screening and on day 1 of each cycle. […] Coagulation parameters were analyzed at screening and on day 1 of each cycle. […] Patients were contacted approximately every 3 months after the end-of-treatment visit to assess progression (in the absence of progression on study), survival, receipt of subsequent anti-cancer therapy, and resolution of toxicity. […] Exploratory endpoints included change from baseline in CA27.29, UGT1A1 and ABCC2 polymorphism for correlation with select toxicities. Three populations for analysis were defined: 1) intent-to-treat (ITT), 2) efficacy evaluable, and 3) safety. The ITT population was the primary population for all efficacy analyses and included all randomized patients. […] The safety population consisted of all patients who received at least one dose or partial dose of chemotherapeutic agent. Summary statistics were used for continuous variables, frequency counts and percentages were used for categorical variables. Ninety-five percent confidence interval were calculated for ORR using the Exact method. Time-to-event variables were analyzed using the Kaplan-Meier method.

## Pentaerythritolyl-4-Arm-(PEG-1-Methylene-2 Oxo-Vinylamino Acetate linked-Irinotecan)-20K [4-arm-PEG-gly-irino-20K]
Serum CA27.29; 145 mg/m^2, both q14d and q21d regimens, FIGS. 1A and 1B
  decrease in serum CA27.29 levels over time: at least twenty five
Serum CA27.29; RECIST PD, FIG. 5
  median change in CA27.29: increased
Serum CA27.29; RECIST PR and CR, FIG. 5
  median of the maximum CA27.29 decline: > 50%
Serum CA27.29; RECIST SD < 6 months, FIG. 5
  median decline in CA27.29: negligible
Serum CA27.29; RECIST SD >= 6 months, FIG. 5
  median of the maximum decline in CA27.29: 30%
Serum CA27.29; Total, 16/45 patients
  Overall best CA27.29 response (50% or better decline in at least one observation from baseline): 36% (16/45)
Serum CA27.29; patients with <25% reduction (n=4) or elevations (n=13) in CA27.29 by week 6
  median PFS: 6 months
Serum CA27.29; patients with >=25% reduction in CA27.29 by week 6 (n=12)
  median PFS: 12 months
Serum CA27.29; patients with RECIST PD (8/10)
  patients showing CA27.29 elevation from baseline: Eighty
Serum CA27.29; patients with RECIST SD >= 6 months (n=5)
  patients manifesting declines in CA27.29: All patients
Serum CA27.29; patients with SD < 6 months (6/11)
  patients showing a decline in CA27.29: 55%
[1]; 145 mg/m^2 iv, administered every 14 days or every 21 days
  objective response rate (ORR): 28.6%
[1]; Total (both schedules)
  Overall Survival (OS): 10.3 months
  Progression Free Survival (PFS): 4.6 months
[1]; Total (both schedules), N = 66
  Overall Response Rate (ORR): 29% (N = 66)
[1]; q21d schedule
  Overall Survival (OS): 13.1 months
  Progression Free Survival (PFS): 5.3 months
